Experimental data as given in patent US11142529B2 (priority 2013, dated 2021).
“Also recorded” adds a separate entry of the source. Like-named read-outs stand apart in the source and are kept apart here.

How the values were obtained:
[1] = format: in vivo, Long Evans rats; conditions: i.v.
Method: (§1) Food and water were available ad libitum.
For plasma exposures, blood samples were centrifuged at 14000 rpm for 16 minutes. After centrifuging, 50 ul of supernatant (plasma) from each sample was added to 200 μl of acetonitrile plus 0.1% formic acid. […] Samples were sonicated for 5 minutes in an ultrasonic water bath, followed by centrifugation for 30 minutes, at 16000 RPM. 100 ul of supernatant was removed from each sample vial and placed in a new glass auto sample vial, followed by the addition of 300 μl of sterile water (pH 6.5).

aged-impaired (AI) rats = assay: Radial Arm Maze (RAM) behavioral task, two-hour delay (Example 107A); format: in vivo, rat; conditions: 3 mg/kg ip
Method: The effects of methyl 3,5-diphenylpyridazine-4-carboxylate on the in vivo spatial memory retention of aged-impaired (AI) rats were assessed in a Radial Arm Maze (RAM) behavioral task using vehicle control and four different dosage levels of methyl 3,5-diphenylpyridazine-4-carboxylate (0.1 mg/kg, 0.3 mg/kg, 1 mg/kg and 3 mg/kg, ip). RAM behavioral tasks were performed on eight AI rats. All five treatment conditions (vehicle and four dosage levels) were tested on all eight rats.
The RAM apparatus used consisted of eight equidistantly-spaced arms. An elevated maze arm (7 cm width×75 cm length) projected from each facet of an octagonal center platform (30 cm diameter, 51.5 cm height). Clear side walls on the arms were 10 cm high and were angled at […] to form a trough. A food well (4 cm diameter, 2 cm deep) was located at the distal end of each arm. Froot Loops™ (Kellogg Company) were used as rewards. Blocks constructed of Plexiglas™ (30 cm height×12 cm width) could be positioned to prevent entry to any arm. Numerous extra maze cues surrounding the apparatus were also provided.
The AI rats were initially subjected to a pre-training test (Chappell et al. Neuropharmacology 37: 481-487, 1998). […]

GABAAα5 receptor = target: T1, GABAAα5 receptor (Rattus norvegicus, UniProt P18508+P19969); assay: GABAA α5 receptor occupancy with Ro 15-4513 tracer (Example 107B); format: in vivo, Long Evans rats
T1 construct: occupancy in the hippocampus (a region of high GABAAα5 receptor density); from tissue; host or cells: rat brain in vivo; hippocampus versus cerebellum
Text: as §1

α5-containing GABAA R = α5-containing GABAA R (Homo sapiens, UniProt P18507+P31644); conditions: cited from earlier work
Chain of α5-containing GABAA R (P31644 32-462): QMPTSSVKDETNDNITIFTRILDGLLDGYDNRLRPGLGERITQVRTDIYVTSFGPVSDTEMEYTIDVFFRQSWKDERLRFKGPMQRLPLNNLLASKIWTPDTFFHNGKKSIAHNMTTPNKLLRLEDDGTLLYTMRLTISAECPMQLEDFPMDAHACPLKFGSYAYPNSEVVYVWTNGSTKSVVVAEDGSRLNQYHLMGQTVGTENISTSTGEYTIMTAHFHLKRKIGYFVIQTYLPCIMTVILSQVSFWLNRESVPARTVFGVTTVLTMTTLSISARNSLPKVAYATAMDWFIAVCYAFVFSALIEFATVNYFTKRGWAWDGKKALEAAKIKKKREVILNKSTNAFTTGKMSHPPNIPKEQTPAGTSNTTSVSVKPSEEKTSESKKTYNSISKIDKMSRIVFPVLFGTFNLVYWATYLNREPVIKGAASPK
Chain of α5-containing GABAA R (P28472 26-473 partner): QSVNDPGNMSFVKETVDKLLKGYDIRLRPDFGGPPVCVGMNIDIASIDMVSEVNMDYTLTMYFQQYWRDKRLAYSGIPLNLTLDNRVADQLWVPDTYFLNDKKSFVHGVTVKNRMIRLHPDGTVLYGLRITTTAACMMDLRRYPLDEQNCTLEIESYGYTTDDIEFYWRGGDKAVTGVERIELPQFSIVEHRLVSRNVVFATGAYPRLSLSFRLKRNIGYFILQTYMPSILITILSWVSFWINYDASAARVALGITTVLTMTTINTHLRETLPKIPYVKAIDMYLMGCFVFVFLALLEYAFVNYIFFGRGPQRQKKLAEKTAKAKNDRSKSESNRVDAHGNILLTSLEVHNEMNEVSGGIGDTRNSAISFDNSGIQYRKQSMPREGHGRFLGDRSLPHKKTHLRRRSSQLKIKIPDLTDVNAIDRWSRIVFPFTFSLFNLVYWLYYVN
Chain of α5-containing GABAA R (P18507 40-475): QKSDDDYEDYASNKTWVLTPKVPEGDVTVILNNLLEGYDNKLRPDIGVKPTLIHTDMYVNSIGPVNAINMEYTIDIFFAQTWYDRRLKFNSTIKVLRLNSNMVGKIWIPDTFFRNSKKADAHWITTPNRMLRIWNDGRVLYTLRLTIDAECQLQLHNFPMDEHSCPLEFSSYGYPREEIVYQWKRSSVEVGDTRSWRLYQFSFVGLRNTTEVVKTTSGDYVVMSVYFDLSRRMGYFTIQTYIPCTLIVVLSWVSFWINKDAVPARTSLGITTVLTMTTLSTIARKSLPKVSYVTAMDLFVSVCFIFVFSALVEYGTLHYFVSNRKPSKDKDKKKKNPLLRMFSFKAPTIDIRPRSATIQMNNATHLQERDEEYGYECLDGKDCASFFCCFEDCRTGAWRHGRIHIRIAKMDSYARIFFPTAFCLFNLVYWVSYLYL

T1 sequence (P19969 32-464 limits assumed): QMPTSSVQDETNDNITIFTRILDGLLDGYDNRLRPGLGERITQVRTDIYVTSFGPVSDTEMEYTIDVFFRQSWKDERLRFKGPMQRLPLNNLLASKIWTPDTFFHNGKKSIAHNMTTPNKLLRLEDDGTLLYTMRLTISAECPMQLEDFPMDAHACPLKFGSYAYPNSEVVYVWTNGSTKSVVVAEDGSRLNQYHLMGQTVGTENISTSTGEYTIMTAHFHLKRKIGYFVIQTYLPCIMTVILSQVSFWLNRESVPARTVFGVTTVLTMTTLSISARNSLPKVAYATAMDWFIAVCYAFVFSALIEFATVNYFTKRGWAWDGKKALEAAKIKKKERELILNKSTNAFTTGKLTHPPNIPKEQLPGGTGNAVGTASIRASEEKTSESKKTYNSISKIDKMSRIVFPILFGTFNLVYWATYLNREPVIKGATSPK
T1 sequence (P18508 39-466): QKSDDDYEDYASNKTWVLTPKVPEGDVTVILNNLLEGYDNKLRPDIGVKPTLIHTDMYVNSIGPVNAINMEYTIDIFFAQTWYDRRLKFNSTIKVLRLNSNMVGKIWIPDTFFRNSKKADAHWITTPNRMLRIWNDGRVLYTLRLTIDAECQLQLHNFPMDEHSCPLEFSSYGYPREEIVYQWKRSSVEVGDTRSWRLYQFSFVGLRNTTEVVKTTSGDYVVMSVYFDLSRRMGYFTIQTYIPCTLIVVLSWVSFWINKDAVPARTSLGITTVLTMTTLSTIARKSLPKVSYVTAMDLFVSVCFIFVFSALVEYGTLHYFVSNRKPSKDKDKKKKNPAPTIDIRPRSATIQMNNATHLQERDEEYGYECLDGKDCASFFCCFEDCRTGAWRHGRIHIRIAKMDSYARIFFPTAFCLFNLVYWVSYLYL

With `COC(=O)c1c(-c2ccccc2)cnnc1-c1ccccc1` [methyl 3,5-diphenylpyridazine-4-carboxylate] the “increase in hippocampal exposure” value ([1]; dose from 0.1 to 1 mg/kg) was 12 fold, the “increase in hippocampal exposure” value ([1]; dose from 1 to 10 mg/kg) was ~5 fold and the “increase in plasma exposure” value ([1]; dose from 1 to 10 mg/kg) was 12 fold. For the same compound, the “memory performance relative to vehicle control” value (aged-impaired (AI) rats; t(7)=4.233, p=0.004) was “significantly improved memory performance”, the “average no. of errors ± SEM in retention test” value (aged-impaired (AI) rats; two-hour delay) was 1.31±0.40 and the “effect on Ro 15-4513 binding in hippocampus” value (GABAAα5 receptor; 0.01-10 mg/kg, i.v.) was “blocked the binding; also recorded: dose-dependently reduced”. The “effect on cerebellum levels of Ro 15-4513” value (GABAAα5 receptor; 0.01-10 mg/kg, i.v.) was “did not affect binding; also recorded: without affecting”, the “GABAA α5 receptors occupied at exposures behaviorally active in aged-impaired rats” value (GABAAα5 receptor; hippocampus, FIG. 4) was “about 32%” and the “ED50 of receptor occupancy, ratio method” value (GABAAα5 receptor; i.v.) was 1.8 mg/kg. For the same compound, the “GABAA α5 receptor occupancy, dose dependence” value (GABAAα5 receptor; rat, in vivo) was “dose-dependent increase”, the receptor occupancy at 10 mg/kg (GABAAα5 receptor; rat, iv, 10 mg/kg) was > 90% and the ED50 (GABAAα5 receptor; rat, iv, read-out: ED50 of receptor occupancy, using L-755,608 to define occupancy) was 1.1 mg/kg. The “α5 in vitro efficacy (EC20)” value (α5-containing GABAA R) was “+27”.
